Patent US9849131B2 (AUTIFONY THERAPEUTICS LIMITED, priority 2009, dated 2017)

Experiments:
Male CD-1 mice = assay: Psychostimulant (amphetamine)-induced hyperactivity in mice (Example 93); details: mouse
hKv3.2 = target: T1, hKv3.2 (Homo sapiens, UniProt Q96PR1); assay: IonWorks Quattro assay, secondary analysis of activation time constant (Tauact); type: cell-based; details: for acts as positive or negative modulator of Kv3.1 and/or Kv3.2: classification from effect on Tauact; for effect on the value of Tauact compared to the vehicle control: vehicle DMSO 0.5%
T1 construct: expressed in transfected cells; host or cells: CHO-K1
T1 sequence (Q96PR1 1-638): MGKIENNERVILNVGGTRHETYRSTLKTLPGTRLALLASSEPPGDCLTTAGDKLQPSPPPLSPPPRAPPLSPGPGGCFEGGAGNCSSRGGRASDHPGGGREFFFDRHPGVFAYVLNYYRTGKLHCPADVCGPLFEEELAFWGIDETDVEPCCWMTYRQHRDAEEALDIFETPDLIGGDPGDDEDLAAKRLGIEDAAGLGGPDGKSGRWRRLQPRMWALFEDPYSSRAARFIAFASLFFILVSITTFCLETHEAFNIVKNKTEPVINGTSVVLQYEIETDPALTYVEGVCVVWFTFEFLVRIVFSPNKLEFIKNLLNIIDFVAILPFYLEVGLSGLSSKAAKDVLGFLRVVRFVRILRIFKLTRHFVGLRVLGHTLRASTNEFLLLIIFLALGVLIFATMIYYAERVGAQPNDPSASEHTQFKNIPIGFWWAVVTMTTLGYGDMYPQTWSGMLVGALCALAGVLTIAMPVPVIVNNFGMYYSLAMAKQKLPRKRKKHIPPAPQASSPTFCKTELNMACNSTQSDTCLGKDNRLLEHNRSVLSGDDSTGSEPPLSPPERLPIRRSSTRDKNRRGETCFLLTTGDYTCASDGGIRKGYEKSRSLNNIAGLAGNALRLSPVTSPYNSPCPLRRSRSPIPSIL
Experimental: A stable cell line expressing human Kv3.2 channels (hKv3.2) was created by transfecting Chinese Hamster Ovary (CHO)-K1 cells with a pCIH5-hKv3.2 vector. Cells were cultured in DMEM/F12 medium supplemented by 10% Foetal Bovine Serum, 1× non-essential amino acids (Invitrogen) and 500 ug/ml of Hygromycin-B (Invitrogen). Cells were grown and maintained at 37° C. in a humidified environment containing 5% CO2 in air.
The day of the experiment, cells were removed from the incubator and the culture medium removed. Cells were washed with 5 ml of Dulbecco's PBS (DPBS) calcium and magnesium free and detached by the addition of 3 ml Versene (Invitrogen, Italy) followed by a brief incubation at 37° C. for 5 minutes. The flask was tapped to dislodge cells and 10 ml of DPBS containing calcium and magnesium was added to prepare a cell suspension. The cell suspension was then placed into a 15 ml centrifuge tube and centrifuged for 2 min at 1200 rpm. After centrifugation, the supernatant was removed and the cell pellet re-suspended in 4 ml of DPBS containing calcium and magnesium using a 5 ml pipette to break […] up the pellet. Cell suspension volume was then corrected to give a cell concentration for the assay of approximately 3 million cells per ml.
Experiments were conducted at room temperature using IonWorks Quattro™ planar array electrophysiology technology (Molecular Devices Corp.) with PatchPlate™ PPC. Stimulation protocols and data acquisition were carried out using a microcomputer (Dell Pentium 4). Planar electrode hole resistances (Rp) were determined by applying a 10 mV voltage step across each well. These measurements were performed before cell addition. […] Following this, amphotericin-B solution was added to the intracellular face of the electrode to achieve intracellular access. Cells were held at −70 mV. Leak subtraction was conducted in all experiments by applying 50 ms hyperpolarizing (10 mV) prepulses to evoke leak currents followed by a 20 ms period at the holding potential before test pulses. From the holding potential of −70 mV, a first test pulse to −15 mV was applied for 100 ms and following a further 100 ms at −70 mV, a second pulse to 40 mV was applied for 50 ms. Cells were then maintained for a further 100 ms at −100 mV and then a voltage ramp from −100 mV to 40 mV was applied over 200 ms. In all experiments, the test pulses protocol was performed in the absence (pre-read) and presence (post-read) of the test compound. Pre- and post-reads were separated by the compound addition followed by a 3 minute incubation.
The magnitude of the effect of a compound can be determined from the time constant (Tauact) obtained from a non-linear fit, using the equation given below, of the rise in Kv3.1 or Kv3.2 currents following the start of the depolarising voltage pulse. Y=(Y0−Ymax)*exp(−K*X)+Ymax
Where: • Y0 is the current value at the start of the depolarising voltage pulse; • Ymax is the plateau current;
K is the rate constant, and Tauact is the activation time constant, which is the reciprocal of K.

[1] = tested on: fast-firing interneurons in the somatosensory cortex; assay: Recordings from fast-firing interneurons driven by high frequency current pulse trains (FIG. 2); type: cell-based, mouse; details: 1 microM; trains of depolarising current pulses at 100, 200, 300 Hz; n=6
Excerpt: Kv3.1 and Kv3.2 channels must activate and deactivate very rapidly in order to allow neurons to fire actions potentials at high frequency (Rudy and McBain, 2001, Trends in Neurosciences 24, 517-526). Slowing of activation will delay the onset of action potential repolarisation; slowing of deactivation will lead to hyperpolarising currents that reduce the excitability of the neuron and delay the time before the neuron can fire a further action potential. Together these two slowing effects will lead to a reduction rather than a facilitation of the neurons ability to fire at high frequencies. […] This latter effect can be observed from recordings made from “fast-firing” interneurons in the cortex of rat brain, using electrophysiological techniques, in vitro (FIG. 2).
The neurons are induced to fire at high frequencies by trains of high frequency depolarising current pulses at 100, 200, and 300 Hz. The ability of the neuron to fire an action potential on each pulse is determined. […] In the absence of drug (closed circles, n=9), the neurons maintained a spike probability of 1 up to 300 Hz.

[2] = tested on: parvalbumin-positive interneurons in the somatosensory cortex; assay: Firing of parvalbumin-positive interneurons in somatosensory cortex slices, in vitro (Example 90); type: cell-based, mouse; details: TEA 0.5 mM vs control slices; at least 1 hour incubation
[3] = tested on: high voltage-activated potassium currents in MNTB neurons (presumed to be mediated by Kv3.1 channels); assay: Potassium currents recorded from MNTB neurons, in vitro (Example 91); type: cell-based, mouse; details: TEA 1 mM; voltage steps to +40 mV
Experimental: Male CBA/Ca mice (aged 12-16 days) were used in these experiments (in accordance with the UK Animals Scientific Procedures Act, 1986). Brain slices containing the medial nucleus of the trapezoid body (MNTB) were prepared as described previously (Brew and Forsythe, 2005).
Chemicals and reagents were purchased from Sigma, (Poole, UK) unless otherwise noted. EXAMPLE 19 was dissolved in DMSO and diluted in ACSF to the required concentration.
Recordings from identified MNTB neurons were conducted as previously described (Brew and Forsythe, 2005). Slices was placed in a superfusion chamber on an inverted microscope stage and continuously perfused with gassed (95% O2-5% CO2) ACSF at a rate of 1 ml min^−1 at room temperature. Whole-cell recordings were made from visually identified MNTB neurons using an […] amplifier (Molecular Devices, Union City, Calif., USA). Patch solution comprised (in mM) potassium gluconate (97.5), KCl (32.5), Hepes (40), EGTA (5), MgCl2 (1), Na2 phosphocreatin (5), pH 7.2 with KOH. Pipettes had resistances of 3-5 MΩ and series resistances were 6-10 MΩ (compensated by 70%, 10 μs lag). Access resistance was frequently monitored and the recording discarded if increases were more than 2 MΩ. […]

Compound | acts as positive or negative modulator of Kv3.1 and/or Kv3.2 (hKv3.2) | also measured
CC(N)Cc1ccccc1 (stereo not shown) [Amphetamine, amphetamine, reference compound] | – | Total Distance Travelled (cm) (Male CD-1 mice; amphetamine 2.0 mg/kg i.p. alone, 60 minutes, mean ± sem): 16304 ± 3309 cm; effect on total distance travelled (Male CD-1 mice; amphetamine alone 2 mg/kg i.p.): large and significant increase
CC[C@@]1(C)NC(=O)N(c2ccc(Oc3ccc(C)c(OC)c3)nc2)C1=O [Example 30, (5R)-5-ethyl-5-methyl-3-(6-{[4-methyl-3-(methyloxy)phenyl]oxy}-3-pyridinyl)-2,4-imidazolidinedione] | positive modulators | –
CC[C@H]1NC(=O)N(c2ccc(Oc3ccc(C#N)cc3C3CC3)nc2)C1=O [Example 70, 3-cyclopropyl-4-({5-[(4R)-4-ethyl-2,5-dioxo-1-imidazolidinyl]-2-pyridinyl}oxy)benzonitrile] | positive modulators | –
CC[C@H]1NC(=O)N(c2ccc(Oc3ccc(C#N)cc3C(C)(C)C)nc2)C1=O [Example 71, 3-(1,1-dimethylethyl)-4-({5-[(4R)-4-ethyl-2,5-dioxo-1-imidazolidinyl]-2-pyridinyl}oxy)benzonitrile] | negative modulators | effect on the value of Tauact compared to the vehicle control (hKv3.2; hKv3.2): markedly increase
CC[C@H]1NC(=O)N(c2ccc(Oc3ccc(C#N)c(C4CC4)c3)nc2)C1=O [Example 76, 2-cyclopropyl-4-({5-[(4R)-4-ethyl-2,5-dioxo-1-imidazolidinyl]-2-pyridinyl}oxy)benzonitrile] | positive modulators | Tauact mean (hKv3.2; hKv3.2, step to −15 mV, compound 3.1 μM (concentration giving ~0.3 nA current)): 7.6 ms
CC[C@H]1NC(=O)N(c2ccc(Oc3ccc(C#N)c(C(C)C)c3)nc2)C1=O [Example 77, 4-({5-[(4R)-4-ethyl-2,5-dioxo-1-imidazolidinyl]-2-pyridinyl}oxy)-2-(1-methylethyl)benzonitrile] | positive modulators | –
CCc1cc(Oc2ccc(N3C(=O)N[C@H](CC)C3=O)cn2)ccc1C#N [Example 78] | positive modulators | –
CC[C@H]1NC(=O)N(c2ccc(Oc3ccc(C#N)c(OC(C)C)c3)nc2)C1=O [Example 80, 4-({5-[(4R)-4-ethyl-2,5-dioxo-1-imidazolidinyl]-2-pyridinyl}oxy)-2-[(1-methylethyl)oxy]benzonitrile] | positive modulators | –
CC[C@H]1NC(=O)N(c2ccc(Oc3ccc(C#N)c(OC(F)(F)F)c3)nc2)C1=O [Example 82, 4-({5-[(4R)-4-ethyl-2,5-dioxo-1-imidazolidinyl]-2-pyridinyl}oxy)-2-[(trifluoromethyl)oxy]benzonitrile] | positive modulators | –
CC[C@H]1NC(=O)N(c2ccc(Oc3cccc4c3C3(CC3)CO4)nc2)C1=O [Example 87, (5R)-5-ethyl-3-[6-(spiro[1-benzofuran-3,1′-cyclopropan]-4-yloxy)-3-pyridinyl]-2,4-imidazolidinedione] | negative modulators | effect on the value of Tauact compared to the vehicle control (hKv3.2; hKv3.2): markedly increase; ability of neurons to fire an action potential on each pulse (spike probability) [1]: unable to follow trains at the highest frequency
CC1(C)NC(=O)N(c2ccc(Oc3cccc4c3C3(CC3)CO4)nc2)C1=O [Example 88, 5,5-dimethyl-3-[6-(spiro[1-benzofuran-3,1′-cyclopropan]-4-yloxy)-3-pyridinyl]-2,4-imidazolidinedione] | negative modulators | effect on the value of Tauact compared to the vehicle control (hKv3.2; hKv3.2): markedly increase
CC[N+](CC)(CC)CC [TEA, tetraethylammonium, reference compound] | – | maximal frequency of action potential firing in response to step currents [2]: lower maximal frequency; amplitude of outward high voltage-activated potassium currents [3]: significantly reduced
